Results: the supplement of paper PMC12698765
± gives the standard deviation of the averaged measurements.

Tests used:
[1] = system: 409B2 hiPSC (iCRISPR Cas9, FRMD7 editing); assay: cell survival relative to solvent control (fold (ratio to mock)); higher = more surviving cells
Method: (§1)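 Subset screen of 55 drugs tested at 5 concentrations around the effective screening dose, in 409B2 iCRISPR Cas9 hiPSCs editing FRMD7 with a ssDNA donor. Drugs were applied for 24 h. Viability was read by resazurin and editing outcomes by amplicon sequencing (HDR, NHEJ <2 bp microhomology, MMEJ ≥2 bp microhomology). Values are relative to solvent mock controls; two biological replicates.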

[2] = system: 409B2 hiPSC (iCRISPR Cas9, FRMD7 editing); assay: NHEJ-attributed indel frequency relative to solvent control (fold (ratio to mock)); higher = more NHEJ outcomes
Method: as §1

[3] = system: 409B2 hiPSC (iCRISPR Cas9, FRMD7 editing); assay: MMEJ-attributed deletion frequency relative to solvent control (fold (ratio to mock)); higher = more MMEJ outcomes
Method: as §1

[4] = system: 409B2 hiPSC (iCRISPR Cas9, FRMD7 editing); assay: HDR (precise edit) frequency relative to solvent control (fold (ratio to mock)); higher = more homology-directed repair outcomes
Method: as §1

CC[C@@]1(O)C(=O)OCc2c1cc1n(c2=O)Cc2cc3cc(O)ccc3nc2-1 [10-Hydroxycamptothecin] (in DMSO)
cell survival ([1]; 20 nM): 0.0133 | cell survival ([1]; 50 nM): -0.00908 | cell survival ([1]; 100 nM): -0.00864 | cell survival ([1]; 200 nM): -0.0102 | cell survival ([1]; 500 nM): -0.000182 | NHEJ-attributed indel frequency ([2]; 20 nM): 0.393 ± 0.053 | NHEJ-attributed indel frequency ([2]; 50 nM): 0.378 ± 0.0062 | NHEJ-attributed indel frequency ([2]; 100 nM): 0.333 ± 0.045 | NHEJ-attributed indel frequency ([2]; 200 nM): 0.267 ± 0.025 | NHEJ-attributed indel frequency ([2]; 500 nM): 0.208 ± 0.021 | MMEJ-attributed deletion frequency ([3]; 20 nM): 0.686 ± 0.039 | MMEJ-attributed deletion frequency ([3]; 50 nM): 0.286 ± 0.059 | MMEJ-attributed deletion frequency ([3]; 100 nM): 0.389 ± 0.0056 | MMEJ-attributed deletion frequency ([3]; 200 nM): 0.546 ± 0.05 | MMEJ-attributed deletion frequency ([3]; 500 nM): 0.474 ± 0.22 | HDR ([4]; 20 nM): 0.141 ± 0.075 | HDR ([4]; 50 nM): 0.115 ± 0.032 | HDR ([4]; 100 nM): 0.106 ± 0.03 | HDR ([4]; 200 nM): 0.0697 ± 0.015 | HDR ([4]; 500 nM): 0.109 ± 0.033

CNCc1ccc(-c2[nH]c3cc(F)cc4c3c2CCNC4=O)cc1 [Rucaparib (free base)] (in DMSO)
cell survival ([1]; 20 nM): 0.789 | cell survival ([1]; 50 nM): 0.744 | cell survival ([1]; 100 nM): 0.541 | cell survival ([1]; 200 nM): 0.487 | cell survival ([1]; 500 nM): 0.291 | NHEJ-attributed indel frequency ([2]; 20 nM): 0.952 ± 0.015 | NHEJ-attributed indel frequency ([2]; 50 nM): 0.924 ± 0.013 | NHEJ-attributed indel frequency ([2]; 100 nM): 0.876 ± 0.034 | NHEJ-attributed indel frequency ([2]; 200 nM): 0.853 ± 0.045 | NHEJ-attributed indel frequency ([2]; 500 nM): 0.787 ± 0.054 | MMEJ-attributed deletion frequency ([3]; 20 nM): 1.04 ± 0.017 | MMEJ-attributed deletion frequency ([3]; 50 nM): 0.892 ± 0.2 | MMEJ-attributed deletion frequency ([3]; 100 nM): 0.93 ± 0.079 | MMEJ-attributed deletion frequency ([3]; 200 nM): 0.869 ± 0.16 | MMEJ-attributed deletion frequency ([3]; 500 nM): 0.918 ± 0.076 | HDR ([4]; 20 nM): 1.13 ± 0.035 | HDR ([4]; 50 nM): 1.302 ± 0.0046 | HDR ([4]; 100 nM): 1.31 ± 0.071 | HDR ([4]; 200 nM): 1.32 ± 0.17 | HDR ([4]; 500 nM): 1.26 ± 0.037

CCN1CCC[C@H]1CNC(=O)c1cc(S(N)(=O)=O)ccc1OC [Levosulpiride] (in DMSO)
cell survival ([1]; 2000 nM): 1.06 | cell survival ([1]; 5000 nM): 1.32 | cell survival ([1]; 10000 nM): 1.26 | cell survival ([1]; 20000 nM): 1.18 | cell survival ([1]; 50000 nM): 1.33 | NHEJ-attributed indel frequency ([2]; 2000 nM): 0.98 ± 0.013 | NHEJ-attributed indel frequency ([2]; 5000 nM): 0.9952 ± 0.0031 | NHEJ-attributed indel frequency ([2]; 10000 nM): 0.9818 ± 0.0064 | NHEJ-attributed indel frequency ([2]; 20000 nM): 1 ± 0.012 | NHEJ-attributed indel frequency ([2]; 50000 nM): 0.978 ± 0.038 | MMEJ-attributed deletion frequency ([3]; 2000 nM): 1.07 ± 0.1 | MMEJ-attributed deletion frequency ([3]; 5000 nM): 1.06 ± 0.0093 | MMEJ-attributed deletion frequency ([3]; 10000 nM): 0.994 ± 0.19 | MMEJ-attributed deletion frequency ([3]; 20000 nM): 1 ± 0.04 | MMEJ-attributed deletion frequency ([3]; 50000 nM): 1 ± 0.04 | HDR ([4]; 2000 nM): 1.05 ± 0.047 | HDR ([4]; 5000 nM): 1.07 ± 0.081 | HDR ([4]; 10000 nM): 1.13 ± 0.019 | HDR ([4]; 20000 nM): 1.06 ± 0.13 | HDR ([4]; 50000 nM): 1.09 ± 0.081

Cc1nc(=O)c2cc(CN(C)c3ccc(C(=O)N[C@@H](CCC(=O)O)C(=O)O)s3)ccc2[nH]1 [Raltitrexed] (in DMSO)
cell survival ([1]; 200 nM): 1.09 | cell survival ([1]; 500 nM): 1.21 | cell survival ([1]; 1000 nM): 0.963 | cell survival ([1]; 2000 nM): 1.05 | cell survival ([1]; 5000 nM): 1.11 | NHEJ-attributed indel frequency ([2]; 200 nM): 0.977 ± 0.023 | NHEJ-attributed indel frequency ([2]; 500 nM): 0.967 ± 0.01 | NHEJ-attributed indel frequency ([2]; 1000 nM): 0.984 ± 0.021 | NHEJ-attributed indel frequency ([2]; 2000 nM): 0.981 ± 0.026 | NHEJ-attributed indel frequency ([2]; 5000 nM): 0.957 ± 0.039 | MMEJ-attributed deletion frequency ([3]; 200 nM): 1.01 ± 0.14 | MMEJ-attributed deletion frequency ([3]; 500 nM): 1 ± 0.078 | MMEJ-attributed deletion frequency ([3]; 1000 nM): 1.12 ± 0.035 | MMEJ-attributed deletion frequency ([3]; 2000 nM): 0.948 ± 0.012 | MMEJ-attributed deletion frequency ([3]; 5000 nM): 1.02 ± 0.057 | HDR ([4]; 200 nM): 1.138 ± 0.0048 | HDR ([4]; 500 nM): 1.13 ± 0.038 | HDR ([4]; 1000 nM): 1.16 ± 0.1 | HDR ([4]; 2000 nM): 1.13 ± 0.042 | HDR ([4]; 5000 nM): 1.13 ± 0.14
